Assays:
[1] = test system: rats bearing Walker-256 tumor; assay: Biodistribution studies with Walker-256 carcinosarcoma; assay type: in vivo, rat
Description: The three radiolabelled compounds illustrated in FIG. 5, including the improved C-18 analog 18-(p-iodophenyl)octadecyl phosphocholine (Compound XVI) described in Example 2, were prepared and administered to two sets of female Sprague Dawley rats (Charles River, Portage, Mich.). One normal set was used as a control, and one set was inoculated with Walker-256 carcinosarcoma cells (5×10^6 cells) in 0.2 ml saline in the right hindlimb. The Walker carcinoma cell line was provided by Dr. James Varani of the Department of Pathology at the University of Michigan, and is an accepted cell line representative of effect in humans. See, e.g. Tayck et al., “Influence of the Walker 256 Carcinosarcoma on Muscle, Tumor, and Whole-Body Protein Synthesis and Growth Rate in the Cancer-Bearing Rat, Cancer Res. 46:5649-54 (1986).
The animals were used 6-8 days later when the tumor weight averaged 10 g. The radiolabelled compounds were dissolved in absolute ethanol (50-500 μl) and Tween-20 (0.1 ml/mg of compound) was added to the solution. Ethanol was removed by evaporation under a stream of nitrogen. Physiological saline or sterile water was added, to give a 2-3% Tween-20 solution which was subsequently mixed by vortex. The solubilized radiolabelled compounds (5-10 μCi, 0.3 ml) were administered intravenously via the tail vein to tumor bearing rats, and the animals were sacrificed by exsanguination while under ether anesthesia at the various time points. Blood samples were collected through cardiac puncture and selected tissues (liver, kidney, etc.) were removed, trimmed, blotted to remove excess blood and weighed. Large organs were thoroughly minced with scissors to obtain random representative tissue samples.
For the biodistribution experiments with 12-(p-iodophenyl)dodecyl phosphocholine, weighed tissue samples were counted with a well scintillation counter (85% counting efficiency). The concentration of radioactivity in each tissue was expressed as a percentage of administered dose per gram of tissue.
Tissue distribution was assessed at various times following administration of the radioiodinated chain length isomers. The results are expressed as the mean % administered dose per gram±SEM (% Dose/g±SEM).

[2] = test system: rats bearing Dunning (MATLyLu) prostate tumors; assay: Biodistribution studies with Dunning prostate tumor; assay type: in vivo, rat; conditions: for mean % administered dose per gram, Adrenal / mean % administered dose per gram, Blood / mean % administered dose per gram, Kidney / mean % administered dose per gram, Liver / mean % administered dose per gram, Lung / mean % administered dose per gram, Plasma / mean % administered dose per gram, Tumor: i.v., Dunning MAT-LyLu prostate tumor-bearing rats, mean ± SEM
Description: The three radiolabelled compounds illustrated in FIGS. 7A-7C, including the improved C-18 analogs 18-(p-iodophenyl)octadecyl phosphocholine (Compound XVI—FIG. 7B) and 1-O-[18-(p-iodophenyl)octadecyl]-1,3-propanediol-3-phosphocholine (Compound XIV—FIG. 7C) described in Examples 2 and 3, respectively, were prepared and administered to two sets of male Copenhagen rats (Harlan Sprague-Dawley, Indianapolis, Ind.). One group of normal animals was used as a control, and another group was inoculated with Dunning prostate tumor cells (1×10^6 MAT-LyLu cells) in 0.2 ml saline in the right hindlimb. The MAT-LyLu subline of the Dunning (R-3327) adenocarcinoma prostate tumor was provided by Dr. Ken Pienta of the Department of Urology at the University of Michigan, and is an accepted cell line representative of effect in humans. See, e.g., Pienta et al., “Inhibition of Spontaneous Metastasis in a Rat Prostrate Cancer Model by Oral Administration of Modified Citrus Pectin, J. Natl. Cancer Inst. 87:348-53 (1995).
The animals were maintained with free access to food and water until day 8-10. The radioiodinated phospholipid ether analog formulated in 2% Tween 20—sterile water (5-10 μCi, 0.3-0.4 ml, described above in Example 6) was administered intravenously into the tail vein of the tumor-bearing animals under metofane anesthesia. The animals were euthanized at selected time points after injection (n=3 per time point) and samples of blood, plasma and a variety of tissues including tumor and prostate are collected and analyzed for radioiodine content. Biodistribution values are calculated as the mean of the individual % administered dose per gram of tissue and % dose per organ values.

[3] = female, Sprague Dawley, rat, in vivo, iv, 24 h
[4] = female, Sprague Dawley, rat, in vivo, iv, 48 h

C[N+](C)(C)CCOP(=O)([O-])OCCCCCCCCCCCCCCCc1ccc(I)cc1 [C-15 Analog, 15-(p-iodophenyl)pentadecyl phosphocholine]
mean % administered dose per gram, Adrenal ([1]; Adrenal, 24 hr, i.v., Walker-256 tumor-bearing rats, mean ± SEM): 0.73 ± 0.08 % Dose/g | mean % administered dose per gram, Adrenal ([1]; Adrenal, 48 hr, i.v., Walker-256 tumor-bearing rats, mean ± SEM): 0.49 ± 0.05 % Dose/g | mean % administered dose per gram, Blood ([1]; Blood, 24 hr, i.v., Walker-256 tumor-bearing rats, mean ± SEM): 0.16 ± 0.01 % Dose/g | mean % administered dose per gram, Blood ([1]; Blood, 48 hr, i.v., Walker-256 tumor-bearing rats, mean ± SEM): 0.14 ± 0.01 % Dose/g | blood levels ([1]; Blood, 120 hours, i.v., Walker-256 tumor-bearing rats, mean ± SEM): 0.07±0.01 % Dose/g | mean % administered dose per gram, Duodenum ([1]; Duodenum, 24 hr, i.v., Walker-256 tumor-bearing rats, mean ± SEM): 1.13 ± 0.13 % Dose/g | mean % administered dose per gram, Duodenum ([1]; Duodenum, 48 hr, i.v., Walker-256 tumor-bearing rats, mean ± SEM): 1.38 ± 0.24 % Dose/g | mean % administered dose per gram, Kidney ([1]; Kidney, 24 hr, i.v., Walker-256 tumor-bearing rats, mean ± SEM): 1.14 ± 0.11 % Dose/g | mean % administered dose per gram, Kidney ([1]; Kidney, 48 hr, i.v., Walker-256 tumor-bearing rats, mean ± SEM): 0.91 ± 0.04 % Dose/g | mean % administered dose per gram, Liver ([1]; Liver, 24 hr, i.v., Walker-256 tumor-bearing rats, mean ± SEM): 1.29 ± 0.10 % Dose/g | mean % administered dose per gram, Liver ([1]; Liver, 48 hr, i.v., Walker-256 tumor-bearing rats, mean ± SEM): 0.83 ± 0.04 % Dose/g | mean % administered dose per gram, Lung ([1]; Lung, 24 hr, i.v., Walker-256 tumor-bearing rats, mean ± SEM): 0.97 ± 0.03 % Dose/g | mean % administered dose per gram, Lung ([1]; Lung, 48 hr, i.v., Walker-256 tumor-bearing rats, mean ± SEM): 0.81 ± 0.04 % Dose/g | mean % administered dose per gram, Plasma ([1]; Plasma, 24 hr, i.v., Walker-256 tumor-bearing rats, mean ± SEM): 0.16 ± 0.01 % Dose/g | mean % administered dose per gram, Plasma ([1]; Plasma, 48 hr, i.v., Walker-256 tumor-bearing rats, mean ± SEM): 0.15 ± 0.03 % Dose/g | mean % administered dose per gram, Tumor ([1]; Tumor, 24 hr, i.v., Walker-256 tumor-bearing rats, mean ± SEM): 1.47 ± 0.10 % Dose/g | mean % administered dose per gram, Tumor ([1]; Tumor, 48 hr, i.v., Walker-256 tumor-bearing rats, mean ± SEM): 1.65 ± 0.23 % Dose/g

C[N+](C)(C)CCOP(=O)([O-])OCCCOCCCCCCCCCCCCCCCCCCc1ccc(I)cc1 [Compound XIV, 1-O-[18-(p-Iodophenyl)octadecyl]-1,3-propanediol-3-phosphocholine]
mean % administered dose per gram, Adrenal ([2]; 24 hr): 1.37 ± 0.03 % Dose/g | mean % administered dose per gram, Adrenal ([2]; 48 hr): 1.04 ± 0.07 % Dose/g | mean % administered dose per gram, Blood ([2]; 24 hr): 0.41 ± 0.01 % Dose/g | mean % administered dose per gram, Blood ([2]; 48 hr): 0.29 ± 0.01 % Dose/g | mean % administered dose per gram, Kidney ([2]; 24 hr): 0.73 ± 0.02 % Dose/g | mean % administered dose per gram, Kidney ([2]; 48 hr): 0.65 ± 0.01 % Dose/g | mean % administered dose per gram, Liver ([2]; 24 hr): 0.57 ± 0.02 % Dose/g | mean % administered dose per gram, Liver ([2]; 48 hr): 0.36 ± 0.01 % Dose/g | mean % administered dose per gram, Lung ([2]; 24 hr): 0.89 ± 0.07 % Dose/g | mean % administered dose per gram, Lung ([2]; 48 hr): 0.78 ± 0.02 % Dose/g | mean % administered dose per gram, Plasma ([2]; 24 hr): 0.58 ± 0.01 % Dose/g | mean % administered dose per gram, Plasma ([2]; 48 hr): 0.42 ± 0.03 % Dose/g | mean % administered dose per gram, Tumor ([2]; 24 hr): 0.43 ± 0.05 % Dose/g | mean % administered dose per gram, Tumor ([2]; 48 hr): 0.39 ± 0.01 % Dose/g

C[N+](C)(C)CCOP(=O)([O-])OCCCCCCCCCCCCCCCCCCc1ccc(I)cc1 [Compound XVI, 18-(p-iodophenyl)octadecyl phosphocholine]
mean % administered dose per gram, Adrenal ([2]; 24 hr): 0.88 ± 0.02 % Dose/g | mean % administered dose per gram, Adrenal ([2]; 48 hr): 0.76 ± 0.03 % Dose/g | mean % administered dose per gram, Blood ([2]; 24 hr): 0.88 ± 0.04 % Dose/g | mean % administered dose per gram, Blood ([2]; 48 hr): 0.64 ± 0.05 % Dose/g | mean % administered dose per gram, Kidney ([2]; 24 hr): 0.59 ± 0.02 % Dose/g | mean % administered dose per gram, Kidney ([2]; 48 hr): 0.51 ± 0.03 % Dose/g | mean % administered dose per gram, Liver ([2]; 24 hr): 0.57 ± 0.02 % Dose/g | mean % administered dose per gram, Liver ([2]; 48 hr): 0.40 ± 0.03 % Dose/g | mean % administered dose per gram, Lung ([2]; 24 hr): 0.84 ± 0.01 % Dose/g | mean % administered dose per gram, Lung ([2]; 48 hr): 0.69 ± 0.05 % Dose/g | mean % administered dose per gram, Plasma ([2]; 24 hr): 1.43 ± 0.06 % Dose/g | mean % administered dose per gram, Plasma ([2]; 48 hr): 0.99 ± 0.11 % Dose/g | mean % administered dose per gram, Tumor ([2]; 24 hr): 0.75 ± 0.04 % Dose/g | mean % administered dose per gram, Tumor ([2]; 48 hr): 0.81 ± 0.04 % Dose/g | tumor levels relative to the shorter chain analog ([2]; versus C-12 analog, Dunning prostate tumor model): more than twice as high | mean % administered dose per gram, Adrenal [1, 3]: 0.85 ± 0.04 % Dose/g | mean % administered dose per gram, Blood [1, 3]: 0.96 ± 0.00 % Dose/g | mean % administered dose per gram, Duodenum [1, 3]: 0.69 ± 0.05 % Dose/g | mean % administered dose per gram, Kidney [1, 3]: 0.65 ± 0.00 % Dose/g | mean % administered dose per gram, Liver [1, 3]: 0.55 ± 0.04 % Dose/g | mean % administered dose per gram, Lung [1, 3]: 0.88 ± 0.06 % Dose/g | mean % administered dose per gram, Plasma [1, 3]: 1.47 ± 0.03 % Dose/g | mean % administered dose per gram, Tumor [1, 3]: 0.98 ± 0.07 % Dose/g | mean % administered dose per gram, Adrenal [1, 4]: 0.92 ± 0.06 % Dose/g | mean % administered dose per gram, Blood [1, 4]: 0.64 ± 0.07 % Dose/g | mean % administered dose per gram, Duodenum [1, 4]: 0.68 ± 0.04 % Dose/g | mean % administered dose per gram, Kidney [1, 4]: 0.59 ± 0.04 % Dose/g | mean % administered dose per gram, Liver [1, 4]: 0.59 ± 0.05 % Dose/g | mean % administered dose per gram, Lung [1, 4]: 0.76 ± 0.07 % Dose/g | mean % administered dose per gram, Plasma [1, 4]: 0.95 ± 0.11 % Dose/g | mean % administered dose per gram, Tumor [1, 4]: 1.14 ± 0.01 % Dose/g | blood levels ([1]; female, Sprague Dawley, rat, in vivo, iv, 120 h): 0.60±0.01 % Dose/g | clearance from non-target tissues ([1]; rat, in vivo): much more rapid than from tumor | level in the tumor over a longer time period ([1]; rat, in vivo): increased significantly | retention in the circulation ([1]; rat, in vivo): retained in the circulation to a much greater extent than the other chain length isomers surveyed
